Assay results published in patent US3948898A, “1,3-Dioxo-2-aminoalkyl-4,4-dimethyl-isoquinolines and salts thereof” (Boehringer Ingelheim GmbH, priority 1973, dated 1976).
Structures can show the parent of a compound that is named as a salt.

Columns and labels:
[1] = hypotensive activity in anesthetized mongrel dogs (i.v.); format: in vivo
Procedure: The test compounds were injected intravenously into the vena saphena in aqueous solution. The arterial bloodpressure was measured before and after administration in the arteria femoralis by means of a […]-pressure transducer and registered on a Grass-polygraph.

[2] = acute toxicity in mice after oral application (LD50); details: mouse, in vivo, p.o., observation time 14 days
Procedure: The acute toxicity of the compounds was tested in mice (observation time: 14 days) after oral application. The LD50 was calculated from the percentage of the animals which died within the observation time after application of varying doses [see J. Pharmacol. exper. Therap.

Row | SMILES | Decrease of bloodpressure diast. ([1]; 0.05 mg/kg i.v.) | Decrease of bloodpressure syst. ([1]; 0.05 mg/kg i.v.) | Duration of activity ([1]; 0.05 mg/kg i.v.) | Decrease of bloodpressure diast. ([1]; 0.1 mg/kg i.v.) | Decrease of bloodpressure syst. ([1]; 0.1 mg/kg i.v.) | Duration of activity ([1]; 0.1 mg/kg i.v.) | LD50 at 336 h [2] | Decrease of bloodpressure diast. ([1]; 0.5 mg/kg i.v.) | Decrease of bloodpressure syst. ([1]; 0.5 mg/kg i.v.) | Duration of activity ([1]; 0.5 mg/kg i.v.) | Decrease of bloodpressure diast. ([1]; 1.0 mg/kg i.v.) | Decrease of bloodpressure syst. ([1]; 1.0 mg/kg i.v.) | Duration of activity ([1]; 1.0 mg/kg i.v.)
1 | COc1ccccc1N1CCN(CCN2C(=O)c3ccccc3C(C)(C)C2=O)CC1.Cl.Cl [A, 1-[4,4-dimethyl-1,3-dioxo-(2H,4H)-isoquinolin-2-yl]-2-[4-(2-methoxy-phenyl)-piperazin-1-yl]-ethane dihydrochloride] | -31 mm Hg | -27 mm Hg | 53 min | -34 mm Hg | -33 mm Hg | 47 min | 850 mg/kg | – | – | – | – | – | –
2 | COc1ccc2c(c1)C(=O)N(CCCNCCc1ccc(OC)c(OC)c1)C(=O)C2(C)C [B, 1-[4,4-dimethyl-7-methoxy-1,3-dioxo-(2H,4H)-isoquinolin-2-yl]-3-[2-(3,4-dimethoxy-phenyl)-ethylamine]propane hydrochloride] | – | – | – | – | – | – | 775 mg/kg | -36 mm Hg | -32 mm Hg | 35 min | -40 mm Hg | -36 mm Hg | 40 min
